Values of other authors as cited in patent US11162142B2, “BCR-ABL1 splice variants and uses thereof” (Quest Diagnostics Investments Incorporated, priority 2010, dated 2021).
Structures can show the parent of a compound that is named as a salt. Where two headings read alike, the source gives them in different places.

Assays:
CML = conditions: all stages of CML

Q: What does the source list for `Cc1ccc(NC(=O)c2ccc(CN3CCN(C)CC3)cc2)cc1Nc1nccc(-c2cccnc2)n1` [imatinib, imatinib mesylate]?
A: Primary resistance (failure to achieve any hematologic response) rate (patients with CML; accelerated-phase CML): 9%; Secondary resistance (hematologic recurrence) rate (patients with CML; accelerated-phase CML): 32%; Primary resistance (failure to achieve any hematologic response) rate (patients with CML; blast-phase CML): 51%; Secondary resistance (hematologic recurrence) rate (patients with CML; blast-phase CML): 41%; Primary resistance (failure to achieve any hematologic response) rate (patients with CML; chronic-phase CML): 3%; Secondary resistance (hematologic recurrence) rate (patients with CML; chronic-phase CML): 22%; Effectiveness of monotherapy (CML): effective for all stages of CML
